Reference: US7811352B2, “Fertilizer compositions and methods of using” (priority 2005, dated 2010)

Key:
Format in all cases: in vivo
[1] = tested on: lawn height, Kentucky bluegrass; assay: Color rating of lawn height Kentucky bluegrass after fertilization (Example 5); settings: about two weeks after application
Protocol: (§1) In this Example, the efficacy of fertilizers on lawn height, Kentucky bluegrass was examined. Fertilizer compositions according to several embodiments of the present disclosure were prepared and compared to the commercial fertilizer products, urea 46-0-0 (granular) fertilizer, Lebanon fertilizer 21-0-12 (granular, commercially available from Lebanon Seaboard Corporation, Lebanon, Pa.) and Milorganite 6-2-0 (granular, commercially available from Milorganite, Milwaukee, Wis.). The fertilizer compositions were applied to the turf grass prior to winter dormancy at a rate equivalent to supplying about 1.0 pounds of nitrogen (N) per 1000 square feet. Each of the fertilizer compositions were applied at substantially equal rates of lbs of nitrogen (N) per 1000 square feet. Table 2 illustrates the response of lawn height, Kentucky bluegrass to fertilization using various exemplary fertilizers of the present invention, taken about two weeks after application of the fertilizer. The letters in the Color and Injury columns correspond to Duncan's Multiple Range Test.

[2] = tested on: Bermuda grass; assay: Turfgrass quality and color ratings, Bermuda grass fairway (Example 10); set-up: key: 1-10; 10 = dark green turf, 1 = dead/brown, 6 = minimally acceptable; settings: scale 1-10
From the text: In this Example, the effect of a fertilizer comprising lysine on warm season turfgrass growth was examined. The effects of lysine (HCl) and LIQUID LYSINE on a common type of golf course fairway quality turfgrass (Bermuda grass) were compared with those of urea and Milorganite.
Fifteen fertilizer treatments comprising three concentrations of each fertilizer composition (Milorganite (N—P—K, 6-2-0), urea (N—P—K, 46-0-0), LIQUID LYSINE (N—P—K, 10-2-1), and both granular and aqueous lysine (HCl) (N—P—K, 15-2-1)) were prepared and applied to 4 replications of Bermuda grass. The aqueous lysine (HCl) was dissolved in water prior to application. Each fertilizer treatment was applied in concentrations of 0.5 lb N/1000 ft^2/month, 1.0 lb N/1000 ft^2/month and 3.0 lb N/1000 ft^2/month. The urea, LIQUID LYSINE and aqueous lysine (HCl) were applied as foliar liquids, while Milorganite and granular lysine (HCl) were applied as granular fertilizers Plot size was 1 m×2 m set up as a randomized complete block. Plots were mowed at 0.5 inches before fertilizer application. Irrigation (0.15 inch) was applied following application. Plots were rated for turfgrass quality and color (scale of 1-10 where 10=dark green turf, 1=dead/brown turf, and 6=minimally acceptable turf) and phytotoxicity (scale of 0-5, where 5=worst, and 2=minimally objectionable) throughout the study period. Quality, color, and phytotoxicity were measured on 2 days before application (day −2) and day 2, day 5, day 15 and day 21 after application. All data was subject to statistical analysis and significant means were determined. Average turfgrass quality ratings for the treatments are presented in Table 9 and the quality results for application rates of 1.0 lb N/1000 ft^2/month are graphically presented in FIG. 4.

[3] = tested on: lawn height, Kentucky bluegrass; assay: Injury rating of lawn height Kentucky bluegrass after fertilization (Example 5); settings: about two weeks after application
Protocol: as §1

[4] = tested on: creeping bentgrass for greens; assay: Turfgrass quality and color ratings, creeping bentgrass for greens (Example 12); settings: scale 1-10
From the text: In this Example, the effect of a fertilizer comprising lysine on turfgrass growth was examined. The effects of lysine (HCl) and LIQUID LYSINE on a common type of golf course greens quality turfgrass (creeping bentgrass for greens) were compared with those of CoRoN® brand fertilizer (commercially available from Helena Chemical Co., Collierville, Tenn.).
Nine fertilizer treatments comprising three concentrations of each fertilizer composition (Corono® (N—P—K, 14-2-14), LIQUID LYSINE (N—P—K, 10-2-1), and lysine (HCl) (N—P—K, 15-2-1)) were prepared and applied to 3 replications of creeping bentgrass for use on golf course greens. The lysine (HCl) (250 g) was dissolved in water (500 mL) prior to application. Each fertilizer treatment was applied in concentrations of 0.7 g N/m^2, 1.4 g N/m^2, and 2.8 g N/m^2. All applications were made using an Ortho Heavy Duty hand pump sprayer with all products being mixed with 126 mL of water for application. Plot size was 2 ft×6 ft set up as a randomized complete block. Irrigation was applied following application. Plots were rated for turfgrass quality and color (scale of 1-10 where 10=dark green turf, 1=dead/brown turf, and 6minimally acceptable turf) and phytotoxicity (% bum) throughout the study period. Quality, color, and phytotoxicity were measured on day 7, day 14, day 2I1, day 28, day 35, and day 42 after application. All data was subject to statistical analysis and significant means were determined.

[5] = 1.09 Lbs. product/1000 square feet
[6] = 2.17 Lbs. product/1000 square feet
[7] = 6.51 Lbs. product/1000 square feet
[8] = Monthly Rate 0.5 lbs N/1000 ft^2, Day 2
[9] = Monthly Rate 0.5 lbs N/1000 ft^2, Day 5
[10] = Monthly Rate 0.5 lbs N/1000 ft^2, Day 15
[11] = Monthly Rate 0.5 lbs N/1000 ft^2, Day 21
[12] = Monthly Rate 0.5 lbs N/1000 ft^2, Day −2 (before application)
[13] = Monthly Rate 1.0 lbs N/1000 ft^2, Day 2
[14] = Monthly Rate 1.0 lbs N/1000 ft^2, Day 5
[15] = Monthly Rate 1.0 lbs N/1000 ft^2, Day 15
[16] = Monthly Rate 1.0 lbs N/1000 ft^2, Day 21
[17] = Monthly Rate 1.0 lbs N/1000 ft^2, Day −2 (before application)
[18] = Monthly Rate 3.0 lbs N/1000 ft^2, Day 2
[19] = Monthly Rate 3.0 lbs N/1000 ft^2, Day 5
[20] = Monthly Rate 3.0 lbs N/1000 ft^2, Day 15
[21] = Monthly Rate 3.0 lbs N/1000 ft^2, Day 21
[22] = Monthly Rate 3.0 lbs N/1000 ft^2, Day −2 (before application)

## NC(N)=O [Urea, urea, reference compound]
[1]; [5]
  Color 1-9 (9 = dark green): 7.0
[1]; [6]
  Color 1-9 (9 = dark green): 7.3
[1]; [7]
  Color 1-9 (9 = dark green): 7.7
[2]; [8]
  Color Ratings - Bermuda Grass: 7.4
  Quality Ratings - Bermuda Grass: 7.5ab
[2]; [9]
  Color Ratings - Bermuda Grass: 7.6efg
  Quality Ratings - Bermuda Grass: 7.5cd
[2]; [10]
  Color Ratings - Bermuda Grass: 7.4de
  Quality Ratings - Bermuda Grass: 7.5de
[2]; [11]
  Color Ratings - Bermuda Grass: 7.6cd
  Quality Ratings - Bermuda Grass: 7.5f
[2]; [12]
  Color Ratings - Bermuda Grass: 6.5
  Quality Ratings - Bermuda Grass: 6.3
[2]; [13]
  Color Ratings - Bermuda Grass: 7.6
  Quality Ratings - Bermuda Grass: 7.5ab
[2]; [14]
  Color Ratings - Bermuda Grass: 8.0def
  Quality Ratings - Bermuda Grass: 7.9abc
[2]; [15]
  Color Ratings - Bermuda Grass: 7.3de
  Quality Ratings - Bermuda Grass: 7.6de
[2]; [16]
  Color Ratings - Bermuda Grass: 7.6cd
  Quality Ratings - Bermuda Grass: 7.6ef
[2]; [17]
  Color Ratings - Bermuda Grass: 6.5
  Quality Ratings - Bermuda Grass: 6.3
[2]; [18]
  Color Ratings - Bermuda Grass: 8.0
  Quality Ratings - Bermuda Grass: 8.1a
[2]; [19]
  Color Ratings - Bermuda Grass: 8.8ab
  Quality Ratings - Bermuda Grass: 8.3ab
[2]; [20]
  Color Ratings - Bermuda Grass: 7.5cde
  Quality Ratings - Bermuda Grass: 7.9de
[2]; [21]
  Color Ratings - Bermuda Grass: 7.9bcd
  Quality Ratings - Bermuda Grass: 7.8def
[2]; [22]
  Color Ratings - Bermuda Grass: 6.4
  Quality Ratings - Bermuda Grass: 6.1
[3]; [5]
  Injury 1-9 (9 = no injury): 8.3
[3]; [6]
  Injury 1-9 (9 = no injury): 8.7
[3]; [7]
  Injury 1-9 (9 = no injury): 8.7

## Cl.NCCCC[C@H](N)C(=O)O [Lys (HCl) 15% N, L-lysine monohydrochloride]
[4]; Rate 0.7 gN/m^2, Day 7
  Color Ratings - Creeping Bentgrass: 6.0abc
  Quality Ratings - Creeping Bentgrass: 5.3a
[4]; Rate 0.7 gN/m^2, Day 14
  Color Ratings - Creeping Bentgrass: 6.0cd
  Quality Ratings - Creeping Bentgrass: 6.3cd
[4]; Rate 0.7 gN/m^2, Day 21
  Color Ratings - Creeping Bentgrass: 6.3a
  Quality Ratings - Creeping Bentgrass: 6.7a
[4]; Rate 0.7 gN/m^2, Day 28
  Color Ratings - Creeping Bentgrass: 6.3ab
  Quality Ratings - Creeping Bentgrass: 6.3a
[4]; Rate 0.7 gN/m^2, Day 35
  Color Ratings - Creeping Bentgrass: 6.3a
  Quality Ratings - Creeping Bentgrass: 6.3ab
[4]; Rate 0.7 gN/m^2, Day 42
  Color Ratings - Creeping Bentgrass: 7.3a
  Quality Ratings - Creeping Bentgrass: 7.0a
[4]; Rate 1.4 gN/m^2, Day 7
  Color Ratings - Creeping Bentgrass: 5.0c
  Quality Ratings - Creeping Bentgrass: 5.7a
[4]; Rate 1.4 gN/m^2, Day 14
  Color Ratings - Creeping Bentgrass: 5.0e
  Quality Ratings - Creeping Bentgrass: 5.7de
[4]; Rate 1.4 gN/m^2, Day 21
  Color Ratings - Creeping Bentgrass: 6.0a
  Quality Ratings - Creeping Bentgrass: 7.0a
[4]; Rate 1.4 gN/m^2, Day 28
  Color Ratings - Creeping Bentgrass: 6.7ab
  Quality Ratings - Creeping Bentgrass: 7.0a
[4]; Rate 1.4 gN/m^2, Day 35
  Color Ratings - Creeping Bentgrass: 5.7ab
  Quality Ratings - Creeping Bentgrass: 5.3cd
[4]; Rate 1.4 gN/m^2, Day 42
  Color Ratings - Creeping Bentgrass: 7.0a
  Quality Ratings - Creeping Bentgrass: 6.7a
[4]; Rate 2.8 gN/m^2, Day 7
  Color Ratings - Creeping Bentgrass: 5.3bc
  Quality Ratings - Creeping Bentgrass: 5.7a
[4]; Rate 2.8 gN/m^2, Day 14
  Color Ratings - Creeping Bentgrass: 5.0e
  Quality Ratings - Creeping Bentgrass: 5.3e
[4]; Rate 2.8 gN/m^2, Day 21
  Color Ratings - Creeping Bentgrass: 6.0a
  Quality Ratings - Creeping Bentgrass: 7.0a
[4]; Rate 2.8 gN/m^2, Day 28
  Color Ratings - Creeping Bentgrass: 6.3ab
  Quality Ratings - Creeping Bentgrass: 7.0a
[4]; Rate 2.8 gN/m^2, Day 35
  Color Ratings - Creeping Bentgrass: 5.0b
  Quality Ratings - Creeping Bentgrass: 4.3 days
[4]; Rate 2.8 gN/m^2, Day 42
  Color Ratings - Creeping Bentgrass: 6.3a
  Quality Ratings - Creeping Bentgrass: 6.7a
